Several values for one entry are separate records, joined by “and”; a condition that tells them apart may be missing. Equal entries are not always repeated.
System: 422866-222-R5-J1-PDC spheroids with HUVEC/MSC, viability
Test: Anticancer human tumor 422866-222-R5-J1-PDC patient-derived pancreatic adenocarcinoma cell line growth inhibition [GQUAD]
Conditions: for viability, T/C: stronger effect = lower value
Excerpt: DNA G-quadruplex Stabilizer Agents in Combinations in Complex Spheroids
A high-throughput screen of multi-cell type tumor spheroids was designed to identify active combinations of DNA G-quadruplex stabilizer agents and targeted small molecules. Complex spheroids include a stromal component modeled by human endothelial cells (HUVEC) and fibroblasts modeled by human mesenchymal stem cells (MSCs). The concentration ranges selected for each drug and investigational agent were based upon clinically achievable concentrations if the clinical Cmax of the agent was known.
Compounds. The drugs and investigational agents: pidnarulex (CX-5461; NSC782164), APTO-253 (NSC789042), BRACO-19 (NSC847499), peposertib (NSC802822), ceralasertib (NSC780249), elimusertib (NSC800525), camonsertib (NSC841442), AZD-1390 (NSC803789), olaparib (NSC753686), talazoparib (NSC767125), ART-558 (NSC835418), sotorasib (NSC818433), MRTX-1133 (NSC836407), SN-38 (NSC673596), topotecan (NSC609699), etoposide (NSC141540), doxorubicin (NSC123127), gemcitabine (NSC613327), 5-fluorouracil (NSC19893), paclitaxel (NSC125973), vemurafenib (NSC761431), panobinostat (NSC761190), R-306465 (JNJ-16241199; NSC773264), adavosertib (NSC754352), TP-3654 (NSC805149), carboplatin (NSC241240), KSQ-4279 (NSC840948), and staurosporine (NSC755774) were obtained from the National Cancer Institute (NCI) Developmental Therapeutics Program Chemical Repository (34). The FDA-approved anticancer drug set is available from the NCI Developmental Therapeutics Program. […] The stock solutions were prepared in dimethyl sulfoxide (DMSO, Sigma-Aldrich, St. Louis, MO, cat. D2650) at 800-fold the tested concentration and stored at -70 degrees C prior to their use. All drugs and investigational agents were tested over a range starting from a high concentration at or near the clinical Cmax and decreasing in half-log increments. If the clinical Cmax for an agent had not been determined, the highest concentration tested was 10 microM.
2.3 Cell Culture. All cells were maintained in an incubator at 37 degrees C and 5% CO2 with 95% humidity. The PDC lines were cultured according to standard operating procedures established by the NCI PDMR. All PDCs were thawed and cultured in Matrigel-coated flasks prepared with a working solution of 1X Ham's F-12 nutrient mix, without supplementation (Invitrogen, cat. 11765054), 100 U/mL penicillin-streptomycin (Invitrogen, cat. 15140122), and 2.5% Matrigel (Corning Inc., cat. 354248) for the first three passages. The 857933-349-R-J2-PDC line was cultured in 6C/Colon 1B media, which includes advanced DMEM/F-12 (Thermo Fisher Scientific, cat. 12634028), 10 mM HEPES (Thermo Fisher Scientific, cat. 15630080), 1X GlutaMAX supplement (Thermo Fisher Scientific, cat. 35050061), 0.1 mg/mL primocin (InvivoGen, cat. ant-pm-2), 10% defined fetal bovine serum, heat inactivated (HyClone Laboratories Inc., cat. SH30070.03HI), 50% L-WRN conditioned media (ATCC, cat. CRL-3276), 1.25 mM N-Acetyl-L-cysteine (Sigma-Aldrich, cat. A9165), 10 mM nicotinamide (Sigma-Aldrich, cat. N0636), 1X B-27 supplement (Thermo Fisher Scientific, cat. 17504044), 1X N-2 supplement (Thermo Fisher Scientific, cat. 17502048), 10 microM Y-27632 dihydrochloride (Tocris Bioscience, cat. 1254), and 50 ng/mL human EGF recombinant protein (Thermo Fisher Scientific, cat. PHG0311). The 485176-168-R4-J1-PDC line was cultured in Panc media, which includes all 6C/Colon 1B media components plus 100 ng/mL human FGF-10 (Thermo Fisher Scientific, cat. 100-26), 500 nM SB-431542 (Selleckchem, cat. S1067), and gastrin (Tocris, cat. 3006).
[…]

[1] = curve of first compound, second compound 0.0316 µM
[2] = curve of first compound, second compound 0.1 µM
[3] = curve of first compound, second compound 0.316 µM
[4] = curve of first compound, second compound 1 µM
[5] = curve of first compound, second compound 3.16 µM
[6] = curve of first compound, second compound 10 µM
[7] = second compound 0.0316 µM, first compound 0.0316 µM
[8] = second compound 0.0316 µM, first compound 0.316 µM
[9] = second compound 0.1 µM, first compound 0.0316 µM
[10] = second compound 0.1 µM, first compound 0.316 µM
[11] = second compound 0.316 µM, first compound 0.0316 µM
[12] = second compound 0.316 µM, first compound 0.316 µM
[13] = second compound 1 µM, first compound 0.0316 µM
[14] = second compound 1 µM, first compound 0.316 µM
[15] = second compound 3.16 µM, first compound 0.0316 µM
[16] = second compound 3.16 µM, first compound 0.316 µM
[17] = second compound 10 µM, first compound 0.0316 µM
[18] = second compound 10 µM, first compound 0.316 µM
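Also: spheroids exposed to compounds for seven days before reading.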
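For viability, T/C in this document: percent viability relative to DMSO vehicle control taken as 100%.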

Structure (SMILES): C=CC(=O)N1CCN(c2nc(=O)n(-c3c(C)ccnc3C(C)C)c3nc(-c4c(O)cccc4F)c(F)cc23)C(C)C1 (centres undefined) + CN(C)c1ccc(Nc2c3ccc(NC(=O)CCN4CCCC4)cc3nc3cc(NC(=O)CCN4CCCC4)ccc23)cc1
- IC50 [1]: < 31.6 nM
- IC50 [2]: < 31.6 nM
- IC50 [3]: < 31.6 nM
- IC50 [4]: < 31.6 nM
- IC50 [5]: < 31.6 nM
- IC50 [6]: < 31.6 nM
- viability, T/C [7]: 39.3%
- viability, T/C (second compound 0.0316 µM, first compound 0.1 µM): 32.5%
- viability, T/C [8]: 29.6%
- viability, T/C (second compound 0.0316 µM, first compound 1 µM): 25.2%
- viability, T/C (second compound 0.0316 µM, first compound 3.16 µM): 26.4%
- viability, T/C (second compound 0.0316 µM, first compound 10 µM): 30%
- viability, T/C [9]: 37.9%
- viability, T/C (second compound 0.1 µM, first compound 0.1 µM): 29.4%
- viability, T/C [10]: 26.6%
- viability, T/C (second compound 0.1 µM, first compound 1 µM): 22.7%
- viability, T/C (second compound 0.1 µM, first compound 3.16 µM): 27.3%
- viability, T/C (second compound 0.1 µM, first compound 10 µM): 26.4%
- viability, T/C [11]: 41.9%
- viability, T/C (second compound 0.316 µM, first compound 0.1 µM): 25.2%
- viability, T/C [12]: 29.9%
- viability, T/C (second compound 0.316 µM, first compound 1 µM): 25.7%
- viability, T/C (second compound 0.316 µM, first compound 3.16 µM): 30.7%
- viability, T/C (second compound 0.316 µM, first compound 10 µM): 28.7%
- viability, T/C [13]: 27.8%
- viability, T/C (second compound 1 µM, first compound 0.1 µM): 27.9%
- viability, T/C [14]: 25.1%
- viability, T/C (second compound 1 µM, first compound 1 µM): 23.9%
- viability, T/C (second compound 1 µM, first compound 3.16 µM): 24.7%
- viability, T/C (second compound 1 µM, first compound 10 µM): 28%
- viability, T/C [15]: 31.2%
- viability, T/C (second compound 3.16 µM, first compound 0.1 µM): 25.5%
- viability, T/C [16]: 24.3%
- viability, T/C (second compound 3.16 µM, first compound 1 µM): 25.3%
- viability, T/C (second compound 3.16 µM, first compound 3.16 µM): 25%
- viability, T/C (second compound 3.16 µM, first compound 10 µM): 28.3%
- viability, T/C [17]: 29.5%
- viability, T/C (second compound 10 µM, first compound 0.1 µM): 27.3%
- viability, T/C [18]: 25.7%
- viability, T/C (second compound 10 µM, first compound 1 µM): 29%
- viability, T/C (second compound 10 µM, first compound 3.16 µM): 28.8%
- viability, T/C (second compound 10 µM, first compound 10 µM): 29.1%

Structure (SMILES): Cn1ncnc1[C@H]1c2n[nH]c(=O)c3cc(F)cc(c23)N[C@@H]1c1ccc(F)cc1 + Cc1cnc(CNC(=O)c2c(=O)c3ccc(N4CCCN(C)CC4)nc3n3c2sc2ccccc23)cn1
- IC50 [1]: > 316 nM
- IC50 [2]: > 316 nM
- IC50 [3]: > 316 nM
- IC50 [4]: > 316 nM
- IC50 [5]: > 316 nM
- IC50 [6]: > 316 nM
- viability, T/C (second compound 0.0316 µM, first compound 0.000999 µM): 94.9%
- viability, T/C (second compound 0.0316 µM, first compound 0.00316 µM): 85%
- viability, T/C (second compound 0.0316 µM, first compound 0.00999 µM): 93.8%
- viability, T/C [7]: 81.2%
- viability, T/C (second compound 0.0316 µM, first compound 0.0999 µM): 70.9%
- viability, T/C [8]: 69.4%
- viability, T/C (second compound 0.1 µM, first compound 0.000999 µM): 89.1%
- viability, T/C (second compound 0.1 µM, first compound 0.00316 µM): 91.2%
- viability, T/C (second compound 0.1 µM, first compound 0.00999 µM): 81.1%
- viability, T/C [9]: 79.3%
- viability, T/C (second compound 0.1 µM, first compound 0.0999 µM): 78.2%
- viability, T/C [10]: 71.8%
- viability, T/C (second compound 0.316 µM, first compound 0.000999 µM): 91.6%
- viability, T/C (second compound 0.316 µM, first compound 0.00316 µM): 78.6%
- viability, T/C (second compound 0.316 µM, first compound 0.00999 µM): 87.4%
- viability, T/C [11]: 84%
- viability, T/C (second compound 0.316 µM, first compound 0.0999 µM): 73.1%
- viability, T/C [12]: 83.9%
- viability, T/C (second compound 1 µM, first compound 0.000999 µM): 75.8%
- viability, T/C (second compound 1 µM, first compound 0.00316 µM): 77.4%
- viability, T/C (second compound 1 µM, first compound 0.00999 µM): 80.7%
- viability, T/C [13]: 80.5%
- viability, T/C (second compound 1 µM, first compound 0.0999 µM): 88.1%
- viability, T/C [14]: 74.9%
- viability, T/C (second compound 3.16 µM, first compound 0.000999 µM): 86.3%
- viability, T/C (second compound 3.16 µM, first compound 0.00316 µM): 71.5%
- viability, T/C (second compound 3.16 µM, first compound 0.00999 µM): 82%
- viability, T/C [15]: 70.7%
- viability, T/C (second compound 3.16 µM, first compound 0.0999 µM): 78.4%
- viability, T/C [16]: 71%
- viability, T/C (second compound 10 µM, first compound 0.000999 µM): 75.2%
- viability, T/C (second compound 10 µM, first compound 0.00316 µM): 78.2%
- viability, T/C (second compound 10 µM, first compound 0.00999 µM): 77.3%
- viability, T/C [17]: 77.9%
- viability, T/C (second compound 10 µM, first compound 0.0999 µM): 84%
- viability, T/C [18]: 66.9%

Structure (SMILES): C=CCn1c(=O)c2cnc(Nc3ccc(N4CCN(C)CC4)cc3)nc2n1-c1cccc(C(C)(C)O)n1
- viability, T/C (compound 0.0316 µM): 80.3% and 112% and 88.7%
- viability, T/C (compound 0.1 µM): 106% and 90.1% and 74.5%
- viability, T/C (compound 0.316 µM): 125% and 67.2% and 52.5%
- viability, T/C (compound 1 µM): 143% and 39.7% and 40.5%
- viability, T/C (compound 3.16 µM): 172% and 31.3% and 30.6%
- viability, T/C (compound 10 µM): 99.8% and 32.3% and 27.9%

Structure (SMILES): Cc1[nH]c2ccc(F)cc2c1-c1nc2c3cccnc3c3ncccc3c2[nH]1
- viability, T/C (compound 3.16 µM): 84.5% [middle of 12 runs]
- IC50 (compound alone, run of 04/16/2024): > 10000 nM
- IC50 (compound alone, run of 04/22/2024): > 10000 nM

Structure (SMILES): COc1ncnc(C2CC2)c1-c1ncc2cnn(Cc3ccc(-c4nc(C(F)(F)F)cn4C(C)C)cc3)c2n1
- viability, T/C (compound 0.0316 µM): 91.6% and 95% and 118%
- viability, T/C (compound 0.1 µM): 94% and 105% and 97%
- viability, T/C (compound 0.316 µM): 92.3% and 121% and 97.5%
- viability, T/C (compound 1 µM): 79.7% and 102% and 98.1%
- viability, T/C (compound 3.16 µM): 97% and 60.6% and 99.1%
- viability, T/C (compound 10 µM): 117% and 43.5% and 105%
- IC50 (curve of compound): > 10000 nM and 6450 nM

Structure (SMILES): CC(C)(O)C1CCC(Nc2ccc3ncc(-c4cccc(C(F)(F)F)c4)n3n2)CC1 (centres undefined)
- viability, T/C (compound 0.0316 µM): 94.3% and 83.6% and 92%
- viability, T/C (compound 0.1 µM): 82.7% and 87.6% and 89.7%
- viability, T/C (compound 0.316 µM): 73.7% and 75.8% and 103%
- viability, T/C (compound 1 µM): 47.5% and 75.1% and 71%
- viability, T/C (compound 3.16 µM): 35% and 31.5% and 45%
- viability, T/C (compound 10 µM): 24.6% and 32.1% and 50.8%
- IC50 (curve of compound): 1000 nM and 1950 nM and 2840 nM

Structure (SMILES): Cc1[nH]c2ccccc2c1CCNCc1ccc(/C=C/C(=O)NO)cc1
- viability, T/C (compound 0.000999 µM): 94.9% and 82.3% and 89.6%
- viability, T/C (compound 0.00316 µM): 90.6% and 106% and 89.9%
- viability, T/C (compound 0.00999 µM): 110% and 121% and 100%
- viability, T/C (compound 0.0316 µM): 95.7% and 94.4% and 76.5%
- viability, T/C (compound 0.0999 µM): 88.5% and 62.9% and 66.2%
- viability, T/C (compound 0.316 µM): 86.2% and 55.7% and 46.1%
- IC50 (curve of compound): > 316 nM and 254 nM
